For data set [1] the following is noted: cited from earlier work.
Data set [2] is described as follows: Saturation solubility of API in ointment bases. Format: physicochemical. As for the experimental part:
Experimental steps: About 340 mg of API was added gradually and slowly to about 5 g of PEG400 (in a water bath at 40° C.), and the mixture was dissolved by magnetic stirring. The orange-red mixture was gradually viscous and could no longer be stirred. About 7 g of PEG400 was added gradually and stirred for another 20 min. The resulting mixture was divided into two portions, one portion was maintained in a water bath at 40° C., and the other portion was cooled to room temperature. Both portions were filtered through a PES water membrane (13 mm, 0.45 μm), and the filtrates were collected for content analysis.
About 400 mg of API was added gradually and slowly to about 5 g of propylene glycol (in a water bath at 40° C.), and the mixture was stirred for dissolution. The orange-red mixture was gradually viscous and could no longer be stirred. About 7 g of PEG400 was added gradually and stirred for another 20 min. The resulting mixture was divided into two portions, one portion was maintained in a water bath at 40° C., and the other portion was cooled to room temperature. Both portions were filtered through a PES water membrane (13 mm, 0.45 μm), and the filtrates were collected for content analysis.

This is an account of results in patent publication US20260240765A1, “RIFAMYCIN-QUINOLIZINONE COUPLED MOLECULE OINTMENT AND METHOD FOR PREPARING SAME” (Tennor Therapeutics (Zhongshan) Limited, priority 2022, published 2026).

Consider `CO[C@H]1/C=C/O[C@@]2(C)Oc3c(C)c(O)c4c(O)c(c(/C=N/N5CCC(N(C)C6([C@@H]7CCN(c8c(F)cn9c(=O)c(C(=O)O)cc(C%10CC%10)c9c8C)C7)CC6)CC5)c(O)c4c3C2=O)NC(=O)/C(C)=C\C=C\[C@H](C)[C@H](O)[C@@H](C)[C@@H](O)[C@@H](C)[C@H](OC(C)=O)[C@@H]1C` [API, rifamycin-quinolizinone coupling molecule], for which, in data set [1], the “Solubility in dichloromethane, polyethylene glycol 400, and dimethyl sulfoxide” value was “soluble”. For the same molecule, in data set [1], the “Solubility in ethanol, methanol, and diethyl ether” value was “almost insoluble”. Moreover, in data set [1], the Water solubility result is “low”. Moreover, the “Oxidation on exposure to air” value in data set [1] (phenol form converts to quinone form) is on record as “easily to be oxidized”. Further, the “pH of maximum water solubility” value in data set [1] (water solubility is pH-dependent, relatively low at low pH) was 10. Moreover, the Saturation solubility in data set [2] (in PEG400, 40° C.) is 23.79 mg/g; in data set [2] (in PEG400, room temperature), 5.80 mg/g; in data set [2] (in propylene glycol, 40° C.), 0.65 mg/g; in data set [2] (in propylene glycol, room temperature), 0.15 mg/g.
